Reference: PubChem BioAssay (NCI)
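How tested: cells in 96-well plates exposed to compound for 48 hours at five concentrations. GI50: concentration for 50% inhibition of growth. TGI marks complete inhibition of growth.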

Experiments:
Assay in all cases: inhibition of tumour cell growth, NCI panel, 48 h
[1] = system: HOP-92 NSCLC
[2] = system: K-562 leukemia
[3] = system: LOX IMVI melanoma
[4] = system: M14 melanoma
[5] = system: NCI-H522 lung
[6] = system: RPMI-8226 leukemia
[7] = system: U251 CNS
[8] = system: UACC-62 melanoma
[9] = system: DU-145 prostate
[10] = system: MDA-MB-435

| Structure (SMILES) | TGI [1] [µM] | TGI [2] [µM] | TGI [3] [µM] | TGI [4] [µM] | TGI [5] [µM] | TGI [6] [µM] | TGI [7] [µM] | TGI [8] [µM] | GI50 [9] [µM] | TGI [9] [µM] | GI50 [2] [µM] | GI50 [3] [µM] | GI50 [4] [µM] | GI50 [10] [µM] | TGI [10] [µM] | GI50 [5] [µM] | GI50 [6] [µM] | GI50 [7] [µM] | GI50 [8] [µM] | GI50 [1] [µM] |
| --- | --- | --- | --- | --- | --- | --- | --- | --- | --- | --- | --- | --- | --- | --- | --- | --- | --- | --- | --- | --- |
| Nc1ccc(C(=O)NN2C(=O)C(Cl)C2c2cccc(O)c2)cc1 (centres undefined) | 35.4 | 44.5 | 16.2 | 35.2 | 3.29 | 41.7 | 25.2 | 32 |  |  |  |  |  |  |  |  |  |  |  |  |
| COc1cc(/C=C\c2ccncc2)cc(OC)c1OC | > 100 | > 100 | > 100 | > 100 | > 100 | > 100 | > 100 | > 100 |  |  |  |  |  |  |  |  |  |  |  |  |
| COc1ccc2c(c1)C(=O)c1c-2n(CCCN)c(=O)c2cc([N+](=O)[O-])ccc12 |  | 1.31 | < 0.01 | < 0.01 | 2.91 | < 0.0222 |  | < 0.01 | < 0.01 | 0.0193 | < 0.01 | < 0.01 | < 0.01 | 3.3 | 19.5 | < 0.01 | < 0.01 | < 0.01 | < 0.01 |  |
| COc1ccc(-c2ccc(/C=N/n3c(COc4ccccc4Cl)n[nH]c3=S)o2)c([N+](=O)[O-])c1 |  | > 100 | 45.8 | 79.1 | > 100 | 92.9 | 57.5 |  |  |  | 34.1 | 17.6 | 26.6 | 20 | 46.6 | 49 | 24.9 | 22 |  |  |
| Cc1cc(C)nc(NS(=O)(=O)c2ccc(NC(=O)c3cccn4c(=O)c5ccccc5nc34)cc2)n1 |  | > 100 | 91.8 | > 100 | 42.6 |  | > 100 | 51.9 |  |  |  |  |  |  |  |  |  |  |  |  |
| CCN(CC)CCC(CNc1c(C)cnc2cc(Cl)ccc12)c1ccc(Cl)cc1 (centres undefined) |  |  |  |  | 17.3 | 13.6 | 13.2 | 5.16 | 12.8 | 26 |  |  |  |  |  | 4.43 | 2.96 | 3.83 | 2.23 |  |
| COc1ccc2c(c1)/C(=C\c1c[nH]c3ccc(OC)cc13)C(=O)N2 | 6.55 | 15.5 | 13.6 | 6.14 | 7.76 | 8.89 |  | 11.3 | 4.72 | 16.4 | 2.21 | 3.25 | 1.91 | 0.877 | 5.17 | 2.27 | 2.39 |  | 2.76 | 1.48 |
| CC(=O)O.CC(=O)O.CC(=O)O.CC(=O)O.[Rh].[Rh] | 63.1 | 56.2 | 61.9 | 82.5 |  | 50.8 | 75.3 | 56.5 | 47.9 | > 100 | 18.5 | 17.2 | 27.8 | 21.7 | 55.4 |  | 19.4 | 25.2 | 24.3 | 25.5 |
